Laboratory results reported in patent publication US20250230193A1, “CYCLIC COMPOUND HAVING SELECTIVE KRAS INHIBITORY EFFECT ON HRAS AND NRAS” (CHUGAI SEIYAKU KABUSHIKI KAISHA, priority 2022, published 2025).
Where a SMILES comes first, the peptide text is derived from it. Bridges are numbered along the chain shown (N, C = ends). [ ]: non-standard residue; d: D form. The star is where a group is joined. hPhe(3-Cl-4-CF3) = N[C@@H](CCc1ccc(C(F)(F)F)c(Cl)c1)C(=O)O; NPrPhe(4-CF3) = CCCN[C@@H](Cc1ccc(C(F)(F)F)cc1)C(=O)O; 3Oxa8azabicyclo(3.2.1)octane = C1CC2COCC1N2*; NMeGly(cPent) = CN[C@H](C(=O)O)C1CCCC1; NMeD = CN[C@@H](CC(=O)O)C(=O)O; NMeL = CN[C@@H](CC(C)C)C(=O)O; Ac5c = NC1(C(=O)O)CCCC1; Sar = CNCC(=O)O

What was measured:
[1] = target: GDP-bound NRAS wild-type protein (Homo sapiens, UniProt P01111); experiment: Binding to NRAS by surface plasmon resonance (SPR), Single Cycle Kinetics
[2] = target: GDP-bound HRAS wild-type protein (Homo sapiens, UniProt P01112); experiment: Binding to HRAS by surface plasmon resonance (SPR), Single Cycle Kinetics
[3] = KD ratio NRAS/KRAS, SPR, GDP-bound wild-type proteins
[4] = KD ratio HRAS/KRAS, SPR, GDP-bound wild-type proteins
[5] = KD ratio, GDP-bound NRAS wild-type vs GDP-bound KRAS wild-type, SPR
[6] = KD ratio, GDP-bound HRAS wild-type vs GDP-bound KRAS wild-type, SPR

GDP-bound HRAS wild-type protein, sequence (P01112 whole entry): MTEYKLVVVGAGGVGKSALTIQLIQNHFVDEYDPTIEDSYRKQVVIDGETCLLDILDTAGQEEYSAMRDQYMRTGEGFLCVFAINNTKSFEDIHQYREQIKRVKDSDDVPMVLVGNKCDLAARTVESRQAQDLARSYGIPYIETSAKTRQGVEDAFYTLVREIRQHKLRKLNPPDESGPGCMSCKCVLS
GDP-bound NRAS wild-type protein, sequence (P01111 whole entry): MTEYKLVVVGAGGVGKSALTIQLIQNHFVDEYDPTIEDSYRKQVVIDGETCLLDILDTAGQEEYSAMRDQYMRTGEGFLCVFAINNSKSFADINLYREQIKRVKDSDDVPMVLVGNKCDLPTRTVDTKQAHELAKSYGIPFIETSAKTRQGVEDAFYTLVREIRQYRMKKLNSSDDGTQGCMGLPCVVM

## CCC[C@H]1C(=O)N[C@@H]([C@@H](C)CC)C(=O)N(C)CC(=O)N(C)[C@H]2C/C=C\CCN(C2=O)[C@@H](Cc2ccc(C)cc2)C(=O)N(C)CC(=O)N[C@@H](CCc2cc(F)c(C(F)(F)F)c(F)c2)C(=O)N2CC3(CC3)C[C@H]2C(=O)NC2(CC(C)(C)C2)C(=O)N(C)[C@@H](CC(C)(C)C)C(=O)N(C)[C@H](C(=O)N(C)C)CC(=O)N1C [PP2997]
[1]; [3]
  NRAS/KRAS (ratio of KD value with respect to GDP-bound NRAS wild-type protein to KD value with respect to KRAS): A (a compound having 10 or more and less than 20 is denoted as A)
[2]; [4]
  HRAS/KRAS (ratio of KD value with respect to GDP-bound HRAS wild-type protein to KD value with respect to KRAS): B (a compound having 3 or more and less than 10 is denoted as B)

## CCC[C@H]1C(=O)N[C@@H]([C@@H](C)CC)C(=O)N(C)CC(=O)N(C)[C@H]2C/C=C\CCN(C2=O)[C@@H](Cc2ccc(C(F)(F)F)cc2)C(=O)N(C)CC(=O)N[C@@H](CCc2ccc(CC)c(Cl)c2)C(=O)N2C[C@H](OCC)C[C@H]2C(=O)NC2(CC(C)(C)C2)C(=O)N(C)[C@@H](C(CC)CC)C(=O)N(C)[C@H](C(=O)N(C)C)CC(=O)N1C [PP2777]
[1]; KD ratio NRAS/KRAS, class symbols
  NRAS/KRAS (ratio of KD value with respect to GDP-bound NRAS wild-type protein to KD value with respect to KRAS): AA (a compound having 20 or more is denoted as AA)
[2]; KD ratio HRAS/KRAS, class symbols
  HRAS/KRAS (ratio of KD value with respect to GDP-bound HRAS wild-type protein to KD value with respect to KRAS): A (a compound having 10 or more and less than 20 is denoted as A)

## CC[C@H](C)[C@@H]1NC(=O)[C@H](CC(C)C)N(C)C(=O)C[C@@H](C(=O)N2CCOCC2)N(C)C(=O)[C@H](C2CCCC2)N(C)C(=O)C2(COC2)NC(=O)[C@@H]2CCCN2C(=O)[C@H](CCc2cc(F)c(C(F)(F)F)c(F)c2)NC(=O)CN(C)C(=O)[C@H](Cc2ccc(C(F)(F)F)cc2)N2CCCCC[C@@H](C2=O)N(C)C(=O)CN(C)C1=O [PP0501]
[1]; KD ratio NRAS/KRAS, SPR
  NRAS/KRAS (ratio of KD value with respect to GDP-bound NRAS wild-type protein to KD value with respect to KRAS): B (a compound having 3 or more and less than 10 is denoted as B)
[2]; KD ratio HRAS/KRAS, SPR
  HRAS/KRAS (ratio of KD value with respect to GDP-bound HRAS wild-type protein to KD value with respect to KRAS): B (a compound having 3 or more and less than 10 is denoted as B)

## CCCN1C(=O)CN(C)C(=O)CN(C)C(=O)[C@H]([C@@H](C)CC)NC(=O)[C@H](CC(C)C)N(C)C(=O)C[C@@H](C(=O)N2C3CCC2COC3)N(C)C(=O)[C@H](C2CCCC2)N(C)C(=O)C2(CCCC2)NC(=O)[C@@H]2CCCN2C(=O)[C@H](CCc2ccc(C(F)(F)F)c(Cl)c2)NC(=O)CN(C)C(=O)[C@@H]1Cc1ccc(C(F)(F)F)cc1 [PP0173] ([NMeL]I[Sar][Sar][NPrPhe(4-CF3)][Sar][hPhe(3-Cl-4-CF3)]P[Ac5c][NMeGly(cPent)][NMeD]-{3Oxa8azabicyclo(3.2.1)octane}; lactam N-11)
[1]; KD ratio NRAS/KRAS, SPR
  NRAS/KRAS (ratio of KD for GDP-bound NRAS wild-type to KD for KRAS): B (a compound having 3 or more and less than 10 is denoted as B)
[2]; KD ratio HRAS/KRAS, SPR
  HRAS/KRAS (ratio of KD for GDP-bound HRAS wild-type to KD for KRAS): C (A compound having a KD ratio of 0.1 or more and less than 3 is denoted as C)

## CCC[C@H]1C(=O)N[C@@H]([C@@H](C)CC)C(=O)N2CC[C@H]2C(=O)N(C)[C@H]2C/C=C\CCN(C2=O)[C@@H](Cc2ccc(C(F)(F)F)cc2)C(=O)N(C)CC(=O)N[C@@H](CCc2cc(F)c(C(F)(F)F)c(F)c2)C(=O)N2C[C@H](OCC)C[C@H]2C(=O)NC2(CC(C)(C)C2)C(=O)N(C)[C@@H](C2CCCC2)C(=O)N(C)[C@H](C(=O)N(C)C)CC(=O)N1C [PP1925]
[1]; [5]
  NRAS/KRAS (ratio of KD value for NRAS to KD value for KRAS): A (a compound having 10 or more and less than 20 is denoted as A)
[2]; [6]
  HRAS/KRAS (ratio of KD value for HRAS to KD value for KRAS): A (a compound having 10 or more and less than 20 is denoted as A)

## CC[C@H](C)[C@@H]1NC(=O)[C@@H]2CCCCCCc3ccc(cc3)C[C@@H](C(=O)N(C)CC(=O)N[C@@H](CCc3ccc(C(F)(F)F)c(OC)c3)C(=O)N3CC4(CC4)C[C@H]3C(=O)NC3(CC(C)(C)C3)C(=O)N(C)[C@@H](C3CCCC3)C(=O)N(C)[C@H](C(=O)N(C)C)CC(=O)N2C)N2CC/C=C\C[C@@H](C2=O)N(C)C(=O)CN(C)C1=O [PP3069]
[1]; [3]
  NRAS/KRAS (ratio of KD value with respect to GDP-bound NRAS wild-type protein to KD value with respect to KRAS): A (a compound having 10 or more and less than 20 is denoted as A)
[2]; [4]
  HRAS/KRAS (ratio of KD value with respect to GDP-bound HRAS wild-type protein to KD value with respect to KRAS): B (a compound having 3 or more and less than 10 is denoted as B)

## CCO[C@@H]1C[C@H]2C(=O)NC3(CCC3)C(=O)N(C)[C@@H](C3CCCC3)C(=O)N(C)[C@H](C(=O)N3CCOCC3)CC(=O)N(C)[C@@H](CC(C)C)C(=O)N[C@@H]([C@@H](C)CC)C(=O)N(C)CC(=O)N(C)[C@H]3CCCCCN(C3=O)[C@@H](Cc3ccc(F)cc3OC)C(=O)N(C)CC(=O)N[C@@H](CCc3cc(F)c(C(F)(F)F)c(F)c3)C(=O)N2C1 [PP0924]
[1]; [5]
  NRAS/KRAS (ratio of KD value with respect to NRAS to KD value with respect to KRAS): B (a compound having 3 or more and less than 10 is denoted as B)
[2]; [6]
  HRAS/KRAS (ratio of KD value with respect to HRAS to KD value with respect to KRAS): B (a compound having 3 or more and less than 10 is denoted as B)
